Results reported in US10308608B2, “Histone deacetylase inhibitors” (BIOMARIN PHARMACEUTICAL INC., priority 2015, dated 2019).
Where a name gives a salt, the structure may show the parent alone. Read-outs that look alike come from different tables or passages of the source.

Tested on: Frataxin (FXN) mRNA
Test: Effect of HDAC inhibitors on frataxin (FXN) mRNA expression, qRT-PCR in compound-treated iPSC derived neuronal cells
Type: cell-based
Conditions: iPSC, 24 h
Description: Effect of HDAC Inhibitors on Frataxin (FXN) mRNA Expression
Method: mRNA quantification of compound-treated iPSC derived neuronal cells Neuronal stem cells were cultured in Neurobasal A medium (Life technologies #10888022) supplemented with N2, B27 (Life technologies #17502-048 and #17504-044), L-glutamine (Life technologies #25030081), supplemented with 20 ng/ml EGF (R&D Systems #236-EG) and 20 ng/ml bFGF (BioPioneer # HRP-0011). Neuronal differentiation was initiated by removing growth factors and culturing cells in Neurobasal A with N2 and B27. Cells were allowed to differentiate for 16 days. HDAC inhibitory compound was then added and incubate for 24 h. RNA isolation was performed using the RNeasy Plus mini kit (QIAgen #74134) using a QIAcube instrument per manufacturer's instructions. qRT-PCR was performed using qScript One-Step SYBR Green qRT-PCR Kit (Quanta Biosciences 170-8893BR) with the following conditions: 20 minutes at 50° C., 5 minutes at 95° C., and then 40 cycles of 20 seconds at 95° C., 20 seconds at 55° C., 30 seconds at 72° C. The primer sequences to detect expression of FXN were: 5′-[…]-3′ and 5′-[…]-3′.
The data for the following compounds, for FXN mRNA fold induction at a compound concentration of 0.625 μM are shown in Table 1, where A<1, 1<B<2, 2<C<3, 3<D<5, E>5.

[1] = compound concentration of 0.625 μM, 24 h incubation, read-out: FXN mRNA fold induction
[2] = read-out: FXN mRNA fold induction, compound concentration of 0.625 μM, 24 h incubation

SMILES | fold induction at 0.625 µM [1] | fold induction at 0.625 µM [2]
Nc1ccccc1NC(=O)c1ccc(NC2CNC2)cc1 [Compound 86, N-(2-aminophenyl)-4-(azetidin-3-ylamino)benzamide trihydrochloride] | 2 to 3 | –
CN1CC(Nc2ccc(C(=O)Nc3ccccc3N)cc2)C1 [Compound 87, N-(2-aminophenyl)-4-((1-methylazetidin-3-yl)amino)benzamide tris(2,2,2-trifluoroacetate)] | 2 to 3 | –
CC(C)CN1CC(Nc2ccc(C(=O)Nc3ccccc3N)cc2)C1 [Compound 88, N-(2-aminophenyl)-4-((1-isobutylazetidin-3-yl)amino)benzamide trihydrochloride] | 1 to 2 | –
CC(C)(O)CN1CC(Nc2ccc(C(=O)Nc3ccccc3N)cc2)C1 [Compound 89, N-(2-aminophenyl)-4-((1-(2-hydroxy-2-methylpropyl)azetidin-3-yl)amino)benzamide] | 1 to 2 | –
CC(C)(C)CN1CC(Nc2ccc(C(=O)Nc3ccccc3N)cc2)C1 [Compound 90, N-(2-aminophenyl)-4-((1-neopentylazetidin-3-yl)amino)benzamide] | 2 to 3 | –
Nc1ccccc1NC(=O)c1ccc(NC2CN(CC3CC3)C2)cc1 [Compound 91, N-(2-aminophenyl)-4-((1-(cyclopropylmethyl)azetidin-3-yl)amino)benzamide trihydrochloride] | 1 to 2 | –
CC1(CN2CC(Nc3ccc(C(=O)Nc4ccccc4N)cc3)C2)CC1 [Compound 92, N-(2-aminophenyl)-4-((1-((1-methylcyclopropyl)methyl)azetidin-3-yl)amino)benzamide] | 2 to 3 | –
Nc1ccccc1NC(=O)c1ccc(NC2CN(CC3CCCCC3)C2)cc1 [Compound 93, N-(2-aminophenyl)-4-((1-(cyclohexylmethyl)azetidin-3-yl)amino)benzamide] | 2 to 3 | –
Nc1ccccc1NC(=O)c1ccc(N[C@H]2CCNC2)cc1 [Compound 94, (S)-N-(2-aminophenyl)-4-(pyrrolidin-3-ylamino)benzamide trihydrochloride] | 1 to 2 | –
CN1CC[C@H](Nc2ccc(C(=O)Nc3ccccc3N)cc2)C1 [Compound 95, (S)-N-(2-aminophenyl)-4-((1-methylpyrrolidin-3-yl)amino)benzamide] | 1 to 2 | –
CC(C)CN1CC[C@H](Nc2ccc(C(=O)Nc3ccccc3N)cc2)C1 [Compound 96, (S)-N-(2-aminophenyl)-4-((1-isobutylpyrrolidin-3-yl)amino)benzamide] | 1 to 2 | –
CC(C)(O)CN1CC[C@H](Nc2ccc(C(=O)Nc3ccccc3N)cc2)C1 [Compound 97, (S)-N-(2-aminophenyl)-4-((1-(2-hydroxy-2-methylpropyl)pyrrolidin-3-yl)amino)benzamide] | 1 to 2 | –
CC(C)(C)CN1CC[C@H](Nc2ccc(C(=O)Nc3ccccc3N)cc2)C1 [Compound 98, (S)-N-(2-aminophenyl)-4-((1-neopentylpyrrolidin-3-yl)amino)benzamide trihydrochloride] | 2 to 3 | –
Nc1ccccc1NC(=O)c1ccc(N[C@H]2CCN(CC3CC3)C2)cc1 [Compound 99, (S)-N-(2-aminophenyl)-4-((1-(cyclopropylmethyl)pyrrolidin-3-yl)amino)benzamide trihydrochloride] | 2 to 3 | –
CC1(CN2CC[C@H](Nc3ccc(C(=O)Nc4ccccc4N)cc3)C2)CC1 [Compound 100, (S)-N-(2-aminophenyl)-4-((1-((1-methylcyclopropyl)methyl)pyrrolidin-3-yl)amino)benzamide] | 1 to 2 | –
Nc1ccccc1NC(=O)c1ccc(N[C@H]2CCN(CC3CCCCC3)C2)cc1 [Compound 101, (S)-N-(2-aminophenyl)-4-((1-(cyclohexylmethyl)pyrrolidin-3-yl)amino)benzamide] | 2 to 3 | –

SMILES | fold induction at 0.625 µM [1] | fold induction at 0.625 µM [2]
Nc1ccccc1NC(=O)c1ccc(N[C@@H]2CCNC2)cc1 [Compound 102, (R)—N-(2-aminophenyl)-4-(pyrrolidin-3-ylamino)benzamide Trihydrochloride] | 2 to 3 | –
CN1CC[C@@H](Nc2ccc(C(=O)Nc3ccccc3N)cc2)C1 [Compound 103, (R)-N-(2-aminophenyl)-4-((1-methylpyrrolidin-3-yl)amino)benzamide] | 1 to 2 | –
CC(C)CN1CC[C@@H](Nc2ccc(C(=O)Nc3ccccc3N)cc2)C1 [Compound 104, (R)-N-(2-aminophenyl)-4-((1-isobutylpyrrolidin-3-yl)amino)benzamide trihydrochloride] | 2 to 3 | –
CC(C)(O)CN1CC[C@@H](Nc2ccc(C(=O)Nc3ccccc3N)cc2)C1 [Compound 105, (R)-N-(2-aminophenyl)-4-((1-(2-hydroxy-2-methylpropyl)pyrrolidin-3-yl)amino)benzamide trihydrochloride] | 2 to 3 | –
CC(C)(C)CN1CC[C@@H](Nc2ccc(C(=O)Nc3ccccc3N)cc2)C1 [Compound 106, (R)-N-(2-aminophenyl)-4-((1-neopentylpyrrolidin-3-yl)amino)benzamide] | 2 to 3 | –
Nc1ccccc1NC(=O)c1ccc(N[C@@H]2CCN(CC3CC3)C2)cc1 [Compound 107, (R)-N-(2-aminophenyl)-4-((1-(cyclopropylmethyl)pyrrolidin-3-yl)amino)benzamide trihydrochloride] | 2 to 3 | –
CC1(CN2CC[C@@H](Nc3ccc(C(=O)Nc4ccccc4N)cc3)C2)CC1 [Compound 108, (R)-N-(2-aminophenyl)-4-((1-((1-methylcyclopropyl)methyl)pyrrolidin-3-yl)amino)benzamide] | 2 to 3 | –
Nc1ccccc1NC(=O)c1ccc(N[C@@H]2CCN(CC3CCCCC3)C2)cc1 [Compound 109, (R)-N-(2-aminophenyl)-4-((1-(cyclohexylmethyl)pyrrolidin-3-yl)amino)benzamide] | 2 to 3 | –
Nc1ccccc1NC(=O)c1ccc(NC2CCNCC2)cc1 [Compound 110, dihydrochloride] | 2 to 3 | –
CN1CCC(Nc2ccc(C(=O)Nc3ccccc3N)cc2)CC1 [Compound 111, N-(2-aminophenyl)-4-((1-methylpiperidin-4-yl)amino)benzamide] | 1 to 2 | –
CC(C)CN1CCC(Nc2ccc(C(=O)Nc3ccccc3N)cc2)CC1 [Compound 112, N-(2-aminophenyl)-4-((1-isobutylpiperidin-4-yl)amino)benzamide trihydrochloride] | 1 to 2 | –
CC1(CN2CCC(Nc3ccc(C(=O)Nc4ccccc4N)cc3)CC2)CC1 [Compound 113, N-(2-aminophenyl)-4-((1-((1-methylcyclopropyl)methyl)piperidin-4-yl)amino)benzamide trihydrochloride] | 2 to 3 | –
Nc1ccccc1NC(=O)c1ccc(NC2CCN(CC3CCCCC3)CC2)cc1 [Compound 114, N-(2-aminophenyl)-4-((1-(cyclohexylmethyl)piperidin-4-yl)amino)benzamide] | 1 to 2 | –
Nc1ccccc1NC(=O)c1ccc(NC2CC3CCC(C2)N3)cc1 (stereo not shown) [Compound 115, 4-((8-azabicyclo[3.2.1]octan-3-yl)amino)-N-(2-aminophenyl)benzamide] | – | 1 to 2
CN1C2CCC1CC(Nc1ccc(C(=O)Nc3ccccc3N)cc1)C2 (stereo not shown) [Compound 116, N-(2-aminophenyl)-4-((8-methyl-8-azabicyclo[3.2.1]octan-3-yl)amino)benzamide trihydrochloride] | – | 2 to 3
